The source of these data is paper PMC6259134, “Synthesis, Antimycobacterial, Antifungal and Photosynthesis-Inhibiting Activity of Chlorinated N-phenylpyrazine-2-carboxamides” (Molecules, 2010).

One series concerns M. tuberculosis H37Rv. The following applies: cited from earlier work.
Series [1] is described as follows: Lipophilicity determination by RP-HPLC (capacity factor k / log k, distributive π parameters). Type of series: physicochemical. How it is done:
The procedure was performed under isocratic conditions with methanol as an organic modifier in the mobile phase using an end-capped non-polar C18 stationary RP column. The results are shown in Table 1 and illustrated in Figure 2. Waters Alliance 2695 XE HPLC separation module and Waters Photodiode Array Detector 2996 (Waters Corp., Milford, MA, USA) were used. Waters Symmetry® C18 5 μm, 4.6 ° 250 mm, Part No. WAT054275 (Waters Corp., Milford, MA, USA) chromatographic column was used. The HPLC separation process was monitored by Empower™ 2 Chromatography Data Software, Waters 2009 (Waters Corp., Milford, MA, USA). The mixture of MeOH (HPLC grade, 70%) and H2O (HPLC–Mili-Q Grade, 30%) was used as a mobile phase. The total flow rate of the column was 1.0 mL/min, injection volume 30 μL, column temperature 30 °C and sample temperature 10 °C were used. The detection wavelength of 210 nm was chosen. The KI methanolic solution was used for the dead time (tD) determination. Retention times (tR) were measured in minutes. The capacity factors k were calculated using the Empower™ 2 Chromatography Data Software according to formula k = (tR - tD)/tD, where tR is the retention time of the solute, whereas tD denotes the dead time obtained using an unretained analyte. Log k, calculated from the capacity factor k, is used as the lipophilicity index converted to log P scale. Distributive π parameters characterizing lipophilicity of the individual substituents were calculated according to the formula π = log kS – log kU, where log kS is the determined capacity factor logarithm of the individual substituted compounds, whereas log kU denotes the determined capacity factor logarithm of the unsubstituted compound, it means π = 0.

On the set-up of series [2]: method as in PMID 1151976, doi:10.1002/9780470171912.ch3. The note with it: Hammett's constant of R3 phenyl substituent; cited from earlier work.
Series [3] has as its system photosynthetic electron transport (PET) in spinach chloroplasts. Put plainly: Inhibition of photosynthetic electron transport (PET) in spinach chloroplasts (DCPIP photoreduction). Type of series: biochemical, Spinacia oleracea L. How it is done: The activity of the majority of the studied compounds was moderate or low relative to the standard. Chloroplasts were prepared from spinach (Spinacia oleracea L.) according to Masarovičová and Kráľová [26]. […] [27], and the rate of photosynthetic electron transport was monitored as a photoreduction of DCPIP. The measurements were carried out in phosphate buffer (0.02 mol/L, pH 7.2) containing sucrose (0.4 mol/L), MgCl2 (0.005 mol/L) and NaCl (0.015 mol/L). The chlorophyll content was 30 mg/L in these experiments and the samples were irradiated (~100 W/m^2) from 10 cm distance with a halogen lamp (250 W) using a 4 cm water filter to prevent warming of the samples (suspension temperature 22 °C). The studied compounds were dissolved in DMSO due to their limited water solubility. […] The inhibitory efficiency of the studied compounds was manifested by IC50 values, i.e. by molar concentration of the compounds causing 50% decrease in the […] relative to the untreated control.

Series [4] has as its system M. tuberculosis H37Rv (ATCC27294). Put plainly: In vitro antimycobacterial primary screening (TAACF, BACTEC 460 / MABA). It counts as cell-based. The note with it: Mycobacterium tuberculosis, read-out: Antimycobacterial evaluation Inhibition. How it is done:
All compounds were assayed in vitro against M. tuberculosis H37Rv. […] None of the tested derivatives overcame this limit, see Table 2.
Antimycobacterial evaluation was carried out in the tuberculosis antimicrobial acquisition and coordinating facility (TAACF), Southern Research Institute, Birmingham, AL, U.S.A., which is a part of the National Institutes of Health (NIH). Primary screening of all compounds was conducted at 6.25 µg/mL against M. tuberculosis H37Rv (ATCC27294) in BACTEC 12B medium using both BACTEC 460 radiometric system and the Microplate Alamar Blue Assay (MABA). For the results see Table 2.

The test system of series [5] is Trichophyton mentagrophytes 445. Put plainly: In vitro antifungal susceptibility testing (microdilution broth method). It counts as cell-based. The note with it: Trichophyton mentagrophytes, 445, T. mentagrophytes.
Series [6] relates to photosynthetic electron transport (PET) in spinach chloroplasts. Set-up: method as in earlier work. The following applies: standard, read-out: PET inhibition IC50; cited from earlier work.

Converted amounts (≈) assume the structure as drawn. “And” between values parts separate entries of the source, which are not always exact repeats. Equal entries are not always repeated. Where two headings read alike, the source gives them in different places.

A word on the MIC: it is the least concentration at which growth counts as inhibited. On to `CC(C)(C)c1ncc(C(=O)Nc2cccc(C(F)(F)F)c2)nc1Cl` [5-tert-butyl-6-chloro-N-(3-trifluoromethylphenyl)pyrazine-2-carboxamide], for which the MIC in the series on M. tuberculosis H37Rv is 3.13 to 6.25 µg/mL.
In general, IC50 refers to the point on the concentration scale where inhibition reaches its midpoint. In general, inhibition refers to the percentage by which the read-out fell short of the control. For `CC(C)(C)c1ncc(C(=O)Nc2ccc(Cl)c(Cl)c2)nc1Cl` [Compound 16, 6-chloro-5-tert-butyl-N-(3,4-dichlorophenyl)pyrazine-2-carboxamide], the log k in series [1] (RP-HPLC, C18, MeOH 70%/H2O 30%, isocratic) is 1.7563. For the same compound, the “π determined Ph” value in series [1] (distributive parameter of phenyl substituents, calculated from log k) is reported as 0.51. Further, the “π determined Pyr” value in series [1] (distributive parameter of pyrazine substituents, calculated from log k) is reported as 1.04. Besides, in series [2], the σ is recorded as 0.60. In series [3], inhibition was half-maximal at 130 µM (IC50). In series [4], the inhibition at 6.25 µg/mL is 0%. Also, the MIC in series [5] (after 72 h, MIC for moulds determined as IC50 value, read-out: Antifungal susceptibility MIC) was determined as 62.5 µM (≈ 22.4 µg/mL); in series [5] (after 120 h, MIC for moulds determined as IC50 value, read-out: Antifungal susceptibility MIC) it was 62.5 µM (≈ 22.4 µg/mL); in series [5] (incubation time not given, read-out: MIC) it was 62.5 µM (≈ 22.4 µg/mL).
Turning to `CN(C)C(=O)Nc1ccc(Cl)c(Cl)c1` [DCMU, 3-(3,4-dichlorophenyl)-1,1-dimethylurea], the IC50 in series [6] is ~1.9 µM and 1.9 µM.
As for `O=C(Nc1cccc(C(F)(F)F)c1)c1cnccn1` [N-(3-Trifluoromethylphenyl)pyrazine-2-carboxamide], in the series with M. tuberculosis H37Rv, the MIC was 3.13 to 6.25 µg/mL.
On to `Cc1ccc(NC(=O)c2cnccn2)cc1I` [N-(3-iodo-4-methylphenyl)pyrazine-2-carbox-amide], for which the MIC with M. tuberculosis H37Rv was 3.13 to 6.25 µg/mL.
